Activity calls are given as the source filed them. No rule for the calls is given here.
Test system: CCRIS mutagenicity, Ames/micronucleus/aberration tests
Test: CCRIS mutagenicity studies
[1] = Test System: AMES SALMONELLA TYPHIMURIUM, Strain/Indicator: TA98, Metabolic Activation: NONE, Method: STANDARD PLATE
[2] = Test System: AMES SALMONELLA TYPHIMURIUM, Strain/Indicator: TA98, Metabolic Activation: RAT, LIVER, S-9, AROCLOR 1254, Method: STANDARD PLATE
[3] = Test System: AMES SALMONELLA TYPHIMURIUM, Strain/Indicator: TA100, Metabolic Activation: NONE, Method: STANDARD PLATE
[4] = Test System: AMES SALMONELLA TYPHIMURIUM, Strain/Indicator: TA100, Metabolic Activation: RAT, LIVER, S-9, AROCLOR 1254, Method: STANDARD PLATE
[5] = Test System: AMES SALMONELLA TYPHIMURIUM, Strain/Indicator: TA1535, Metabolic Activation: NONE, Method: STANDARD PLATE
[6] = Test System: AMES SALMONELLA TYPHIMURIUM, Strain/Indicator: TA1537, Metabolic Activation: NONE, Method: STANDARD PLATE
[7] = Test System: AMES SALMONELLA TYPHIMURIUM, Strain/Indicator: TA98, Metabolic Activation: NONE, Method: PREINCUBATION
[8] = Test System: AMES SALMONELLA TYPHIMURIUM, Strain/Indicator: TA100, Metabolic Activation: NONE, Method: PREINCUBATION
[9] = Test System: AMES SALMONELLA TYPHIMURIUM, Strain/Indicator: TA104, Metabolic Activation: NONE, Method: PREINCUBATION

In the case of C(=Nc1ccccc1)c1cccc2cccnc12, the mutagenic call [1] is reported as “inactive; negative”, the mutagenic call [2] is reported as “inactive; negative” and the mutagenic call [3] is reported as “inactive; negative”. The mutagenic call [4] was “active; positive”, the mutagenic call [5] was “inactive; negative” and the mutagenic call (Test System: AMES SALMONELLA TYPHIMURIUM, Strain/Indicator: TA1535, Metabolic Activation: RAT, LIVER, S-9, AROCLOR 1254, Method: STANDARD PLATE) was “inactive; negative”. The mutagenic call [6] was “inactive; negative” and the mutagenic call (Test System: AMES SALMONELLA TYPHIMURIUM, Strain/Indicator: TA1537, Metabolic Activation: RAT, LIVER, S-9, AROCLOR 1254, Method: STANDARD PLATE) was “inactive; negative”.
In the case of Cc1ccc2nsc(NC(=O)C(Cl)(Cl)Cl)c2c1, the mutagenic call [1] is reported as “active; positive”, the mutagenic call (Test System: AMES SALMONELLA TYPHIMURIUM, Strain/Indicator: TA98, Metabolic Activation: S-9, Method: STANDARD PLATE) is reported as “active; positive” and the mutagenic call [3] is reported as “active; positive”. For the same compound, the mutagenic call (Test System: AMES SALMONELLA TYPHIMURIUM, Strain/Indicator: TA100, Metabolic Activation: S-9, Method: STANDARD PLATE) was “active; positive”, the mutagenic call [5] was “inactive; negative” and the mutagenic call (Test System: AMES SALMONELLA TYPHIMURIUM, Strain/Indicator: TA1535, Metabolic Activation: S-9, Method: STANDARD PLATE) was “inactive; negative”. For the same compound, the mutagenic call [6] was “inactive; negative” and the mutagenic call (Test System: AMES SALMONELLA TYPHIMURIUM, Strain/Indicator: TA1537, Metabolic Activation: S-9, Method: STANDARD PLATE) was “inactive; negative”.
With COc1c2ccoc2nc2c(OC)cccc12 the mutagenic call (Test System: AMES SALMONELLA TYPHIMURIUM, Strain/Indicator: TA98, Metabolic Activation: RAT, LIVER, MICROSOMES, PHENOBARBITAL, Method: STANDARD PLATE) was “active; positive”, the mutagenic call (Test System: AMES SALMONELLA TYPHIMURIUM, Strain/Indicator: TA98, Metabolic Activation: RAT, LIVER, S-9, PHENOBARBITAL, Method: STANDARD PLATE) was “active; positive” and the mutagenic call (Test System: AMES SALMONELLA TYPHIMURIUM, Strain/Indicator: TA100, Metabolic Activation: RAT, LIVER, MICROSOMES, PHENOBARBITAL, Method: STANDARD PLATE) was “active; positive”. For the same compound, the mutagenic call (Test System: AMES SALMONELLA TYPHIMURIUM, Strain/Indicator: TA100, Metabolic Activation: RAT, LIVER, S-9, PHENOBARBITAL, Method: STANDARD PLATE) was “active; positive”, the mutagenic call (Test System: AMES SALMONELLA TYPHIMURIUM, Strain/Indicator: TA1535, Metabolic Activation: RAT, LIVER, MICROSOMES, PHENOBARBITAL, Method: STANDARD PLATE) was “inactive; negative” and the mutagenic call (Test System: AMES SALMONELLA TYPHIMURIUM, Strain/Indicator: TA1538, Metabolic Activation: RAT, LIVER, MICROSOMES, PHENOBARBITAL, Method: STANDARD PLATE) was “active; positive”.
In the case of O=C(Cl)c1ccc(C(=O)Cl)cc1, the mutagenic call [7] is reported as “active; positive”, the mutagenic call (Test System: AMES SALMONELLA TYPHIMURIUM, Strain/Indicator: TA98, Metabolic Activation: RAT LIVER S-9, PCB, Method: PREINCUBATION) is reported as “active; positive” and the mutagenic call [8] is reported as “active; positive”. The mutagenic call (Test System: AMES SALMONELLA TYPHIMURIUM, Strain/Indicator: TA100, Metabolic Activation: RAT LIVER S-9, PCB, Method: PREINCUBATION) was “active; positive”, the mutagenic call [9] was “active; positive” and the mutagenic call (Test System: AMES SALMONELLA TYPHIMURIUM, Strain/Indicator: TA104, Metabolic Activation: RAT LIVER S-9, PCB, Method: PREINCUBATION) was “active; positive”. For the same compound, the mutagenic call (Test System: E.COLI, Strain/Indicator: WP2 UVRA, Metabolic Activation: NONE, Method: PREINCUBATION) was “active; positive” and the mutagenic call (Test System: E.COLI, Strain/Indicator: WP2 UVRA, Metabolic Activation: RAT LIVER S-9, PCB, Method: PREINCUBATION) was “active; positive”.
For ClCBr, the mutagenic call (Test System: AMES SALMONELLA TYPHIMURIUM, Strain/Indicator: TA97, Metabolic Activation: NONE, Method: STANDARD PLATE) was “active; positive”, the mutagenic call (Test System: AMES SALMONELLA TYPHIMURIUM, Strain/Indicator: TA97, Metabolic Activation: RAT, LIVER, S-9, AROCLOR 1254, Method: STANDARD PLATE) was “active; positive” and the mutagenic call (Test System: AMES SALMONELLA TYPHIMURIUM, Strain/Indicator: TA98, Metabolic Activation: HAMSTER, LIVER, S-9, AROCLOR 1254 (30%), Method: PREINCUBATION) was “active; positive”. The mutagenic call [7] was “active; positive”, the mutagenic call [1] was “active; positive” and the mutagenic call (Test System: AMES SALMONELLA TYPHIMURIUM, Strain/Indicator: TA98, Metabolic Activation: RAT, LIVER, S-9, AROCLOR 1254 (30%), Method: PREINCUBATION) was “active; positive”. The mutagenic call [2] was “active; positive”, the mutagenic call (Test System: AMES SALMONELLA TYPHIMURIUM, Strain/Indicator: TA100, Metabolic Activation: HAMSTER, LIVER, S-9, AROCLOR 1254 (30%), Method: PREINCUBATION) was “active; positive” and the mutagenic call (Test System: AMES SALMONELLA TYPHIMURIUM, Strain/Indicator: TA100, Metabolic Activation: NONE, Method: DESICCATOR) was “active; positive”. For the same compound, the mutagenic call [8] was “active; positive”, the mutagenic call [3] was “active; positive” and the mutagenic call (Test System: AMES SALMONELLA TYPHIMURIUM, Strain/Indicator: TA100, Metabolic Activation: RAT, LIVER, S-9, AROCLOR 1254 (30%), Method: PREINCUBATION) was “active; positive”. For the same compound, the mutagenic call [4] was “active; positive”, the mutagenic call (Test System: AMES SALMONELLA TYPHIMURIUM, Strain/Indicator: TA104, Metabolic Activation: NONE, Method: STANDARD PLATE) was “active; positive” and the mutagenic call (Test System: AMES SALMONELLA TYPHIMURIUM, Strain/Indicator: TA104, Metabolic Activation: RAT, LIVER, S-9, AROCLOR 1254, Method: STANDARD PLATE) was “inactive; negative”.
With Oc1cc(O)c2ccccc2c1 the mutagenic call [7] was “active; positive”, the mutagenic call [8] was “active; positive” and the mutagenic call [9] was “active; positive”. The mutagenic call (Test System: AMES SALMONELLA TYPHIMURIUM, Strain/Indicator: TA1535, Metabolic Activation: NONE, Method: PREINCUBATION) was “inactive; negative”, the mutagenic call (Test System: AMES SALMONELLA TYPHIMURIUM, Strain/Indicator: TA1537, Metabolic Activation: NONE, Method: PREINCUBATION) was “inactive; negative” and the mutagenic call (Test System: AMES SALMONELLA TYPHIMURIUM, Strain/Indicator: TA1538, Metabolic Activation: NONE, Method: PREINCUBATION) was “inactive; negative”. The mutagenic call (Test System: AMES SALMONELLA TYPHIMURIUM, Strain/Indicator: TA2637, Metabolic Activation: NONE, Method: PREINCUBATION) was “active; positive” and the mutagenic call (Test System: AMES SALMONELLA TYPHIMURIUM, Strain/Indicator: TA2659, Metabolic Activation: NONE, Method: PREINCUBATION) was “inactive; negative”.

Source: PubChem BioAssay AID1259407 (Chemical Carcinogenesis Research Information System (CCRIS), 2018)
